Experiment [1] relates to MCF7. Kind of experiment: Induction of apoptosis in human MCF7 cells assessed as cell shrinkage up to 20 uM after 48 hrs by Hoechst 33258 staining based fluorescence microscopic method. Format: functional.
For experiment [2], the system named is MCF7. Kind of experiment: Induction of apoptosis in human MCF7 cells assessed as granular apoptotic body formation up to 20 uM after 48 hrs by Hoechst 33258 staining based fluorescence microscopic method. Format: functional, cell-based.
For experiment [3], the system named is MCF7. Briefly: Cell cycle arrest in human MCF7 cells assessed as accumulation at S phase at 10 uM after 48 hrs by propidium iodide staining based flow cytometry (reference value: 41.55%). It is filed as functional. (Flow cytometry measures light scatter and fluorescence of single cells or particles in a stream.)
Experiment [4] has as its system MCF7. Briefly: Cytotoxicity against human MCF7 cells assessed as reduction in cell viability after 72 hrs by MTT assay. It is filed as functional, cell-based. The following applies: MCF7, 72 h. A general note: Tetrazolium assays rely on reduction of a dye to a coloured formazan, in cell work by metabolically active cells.
The subject of experiment [5] is MCF7. Kind of experiment: Induction of apoptosis in human MCF7 cells assessed as necrotic cells at 20 uM after 48 hrs by Annexin-V FITC/propidium iodide staining based flow cytometry (reference value: 4.69%). It is filed as functional.
The test system of experiment [6] is MCF7. Kind of experiment: Induction of apoptosis in human MCF7 cells assessed as late apoptotic cells at 20 uM after 48 hrs by Annexin-V FITC/propidium iodide staining based flow cytometry (reference value: 6.22%). Format: functional.
Another experiment deals with U-87 MG. Briefly: Cytotoxicity against human U87 cells assessed as reduction in cell viability after 72 hrs by MTT assay. Format: functional, cell-based, U-87MG ATCC.
Experiment [7] concerns MCF7. Kind of experiment: Induction of apoptosis in human MCF7 cells after 48 hrs by Annexin-V FITC/propidium iodide staining based flow cytometry. Format: functional, cell-based.
The test system of experiment [8] is MCF7. Briefly: Cell cycle arrest in human MCF7 cells assessed as accumulation at G2 phase at 2.5 uM after 48 hrs by propidium iodide staining based flow cytometry (reference value: 13.24%). It is filed as functional.
In experiment [9] the test system is MCF7. Kind of experiment: Induction of apoptosis in human MCF7 cells assessed as viable cells at 10 uM after 48 hrs by Annexin-V FITC/propidium iodide staining based flow cytometry (reference value: 88.59%). It is filed as functional. The following applies: MCF7, 48 h, read-out: Activity.
The subject of experiment [10] is MCF7. Briefly: Cell cycle arrest in human MCF7 cells assessed as accumulation at G1 phase at 5 uM after 48 hrs by propidium iodide staining based flow cytometry (reference value: 45.21%). It is filed as functional.

pIC50: −log10 of the molar value. The source made the active and inactive calls. No cut-off for these calls is given here.

Take `C[C@H]1[C@H](N2CCN(C(=O)Nc3ccc(OC(F)(F)F)cc3)CC2)O[C@@H]2O[C@@]3(C)CC[C@H]4[C@H](C)CC[C@@H]1[C@@]24OO3`: the outcome in the experiment with MCF7 [1] and in the experiment with MCF7 [2] was Active. Further, the Activity with MCF7 [3] was 9.2%; in the experiment with MCF7 [5], 10.18%; in the experiment with MCF7 [6], 68.8%; in the experiment with MCF7 [7] it was “Dose-dependent effect”; with MCF7 [8] it was 9.18%; in the experiment on MCF7 [10] it was 76.68%. In addition, the pIC50 in the experiment with MCF7 [4] is 5.68; in the experiment on U-87 MG, 4.71. Besides, the viability at 10 µM in the experiment on MCF7 [9] worked out at 28.7%.

Broadly, the pIC50 is −log10 of the IC50, conventionally taken in molar units.
